Experimental data published in patent US20230149409A1, “TREATMENT OF HUMAN PAPILLOMAVIRUS-ASSOCIATED CANCERS BY PD-L1 INHIBITORS” (priority 2021, published 2023).
Marks after values point to notes of the source that are not given here.

Tests used:
[1] = system: advanced solid tumors (HPV-positive tumors); test: Phase 1 open-label clinical trial of Compound 1; type: in vivo, human
Excerpt: This study is a Phase 1, open-label, dose-finding study for Compound 1 (see Table 1, supra). Eligible participants enrolled will receive Compound 1 as an oral tablet (50-mg, 100-mg, or 400-mg) during 21-day or 28-day cycles until disease progression, unacceptable toxicity, death, withdrawal of consent, or any other reason. Continuous treatment administration may be once daily (QD) or twice daily (BID).
Following a dose escalation study to identify a pharmacological active dose, this trial will enroll up to 60 participants with HPV-positive tumors at 1 or more pharmacologically active dose (PAD) doses to further evaluate safety, efficacy, PK, and pharmacodynamic effects. A maximum of 20 participants may be enrolled per dose level. Participants must have HPV-positive tumors as determined by a local laboratory using p16 IHC, polymerase chain reaction methods, or other locally-available method to detect HPV.
Participants are eligible to be included in the study only if all of the following criteria apply: • 1. Male and female participants must be ≥ 18 years of age at the time of signing the ICF. • 2. Ability to comprehend and willingness to sign an ICF. • 3. Must be willing and able to conform to and comply with all Protocol requirements, including all scheduled visits, Protocol procedures, and the ability to swallow oral medication. • 4. Histologically confirmed advanced solid tumors with measurable lesions (per RECIST v1.1 or RANO for primary brain tumors) that are considered nonamenable to surgery or other curative treatments or procedures. […] Participants must have disease progression after treatment with available therapies that are known to confer clinical benefit or who are intolerant to or ineligible for standard treatment. • 6. Willingness to undergo a tumor biopsy to obtain tumor tissue. • 7. Eastern Cooperative Oncology Group performance status score of 0 or 1. • 8. Life expectancy > 12 weeks. • 9. Willingness to avoid pregnancy or fathering children. • 10. For the cohort participating in the extension to participants with HPV-positive solid tumors: any HPV-positive solid tumor which has received prior standard therapy.
Adult patients (≥18 years) with advanced solid tumors were enrolled into this open-label study. Patients had disease progression after standard available therapy, or were intolerant of, or ineligible for standard treatment. Measureable disease was required. A modified 3+3 dose escalation design was employed, followed by dose expansions. The primary endpoints were safety and tolerability of Compound 1, identification of a pharmacologically active dose and/or maximum tolerated dose, and confirmation of the recommended Phase 2 dose. Secondary endpoints included PK, pharmacodynamics, and efficacy as assessed by investigator-determined objective response and disease control rates (complete response (CR), partial response (PR), or stable disease (SD)).
Patients that were confirmed to have HPV+ or confirmed to be HPV- are indicated below. Patients of unknown HPV status are also indicated.

[2] = system: select advanced solid tumors (HPV+ carcinomas); test: Phase 1 open-label clinical trial of Compound 30; type: in vivo, human; set-up: key: complete response (CR); partial response (PR); stable disease (SD); progressive disease (PD)
Excerpt: Two open-label, nonrandomized, global multicenter Phase 1 studies in participants with select advanced solid tumors are being conducted for Compounds 24 and 30 in Table 1 supra. In addition to the primary endpoint of determining safety, tolerability, PAD and/or maximum tolerated dose (MTD) of each compound, the studies are exploring preliminary efficacy (complete response (CR), partial response (PR), stable disease (SD), or progressive disease (PD)) in participants with select advanced cancers, including virally mediated tumors such as HPV+ carcinomas. HPV+ tumors can be determined by a local laboratory using p16 IHC, polymerase chain reaction methods, or other locally-available method to detect HPV. Results for patients having solid tumors whose HPV+ status was confirmed, suspected or negative are shown below for Compound 24 and Compound 30 in Tables 4 and 5, respectively.

[3] = biological target: T1, PD-⅟PD-L1 (recombinant human PD-L1 protein and human PD-1 protein) (Homo sapiens, UniProt Q9NZQ7); test: Homogeneous Time-Resolved Fluorescence (HTRF) PD-1/PD-L1 binding assay; conditions: 3 nM PD1, 10 nM PD-L1, 25° C., PBS pH 7.4
T1 construct: Recombinant human PD-L1 protein (19-238) with a His-tag at the C-terminus; purchased AcroBiosystems PD1-H5229 (PD-L1); PD1-H5257 (PD-1)

[4] = Anal, Confirmed HPV+, 400 mg BID
[5] = Anal, Total (all HPV status), 400 mg BID
[6] = Anal, Unknown HPV status, 400 mg BID
[7] = Cervical, Confirmed HPV+, 400 mg BID
[8] = Cervical, Total (all HPV status), 400 mg BID
[9] = Total of tumor types, Confirmed HPV+
[10] = Total of tumor types, Total (all HPV status)
[11] = Total of tumor types, Unknown HPV status

T1 sequence (Q9NZQ7 19-238): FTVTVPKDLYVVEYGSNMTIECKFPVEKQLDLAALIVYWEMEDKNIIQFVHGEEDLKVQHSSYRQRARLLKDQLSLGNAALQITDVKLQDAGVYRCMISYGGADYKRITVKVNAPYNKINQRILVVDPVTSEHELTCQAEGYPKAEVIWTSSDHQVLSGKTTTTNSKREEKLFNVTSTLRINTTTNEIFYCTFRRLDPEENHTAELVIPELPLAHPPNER

Cc1c(Nc2nccc3cc(CN4CC[C@@H](O)C4)cnc23)cccc1-c1cccc(-c2nc3cc(CN4CC[C@@H](C(=O)O)C4)cc(C#N)c3o2)c1C [Compound 1, (R)-1-((7-cyano-2-(3′-(3-(((R)-3-hydroxypyrrolidin-1-yl)methyl)-1,7-naphthyridin-8-ylamino)-2,2′-dimethylbiphenyl-3-yl)benzo[d]oxazol-5-yl)methyl)pyrrolidine-3-carboxylic acid]
ORR based on PR or CR ([1]; 14 evaluable patients, 400 mg BID or 800 mg BID, factoring in responses in patients with unknown HPV status): about 28.6% | number of patients with PD [1, 4]: 1 | number of patients with SD [1, 4]: 1 | number of patients with PR/CR ([1]; Anal, Confirmed HPV+, patient received 800 mg BID): 1^a | number of patients with PD [1, 5]: 3 | number of patients with SD [1, 5]: 2 | number of patients with PR/CR ([1]; Anal, Total (all HPV status), 400 or 800 mg BID): 3 | number of patients with PD [1, 6]: 2 | number of patients with SD [1, 6]: 1 | number of patients with PR/CR ([1]; Anal, Unknown HPV status, 1 out of 2 patients received 800 mg BID): 2^b | number of patients with PD [1, 7]: 2 | number of patients with SD [1, 7]: 1 | number of patients with PD [1, 8]: 2 | number of patients with SD [1, 8]: 1 | number of patients with PD ([1]; HNSCC, Confirmed HPV-, patient received 800 mg BID): 1^a | number of patients with PD ([1]; HNSCC, Total (all HPV status)): 1 | number of patients with SD ([1]; Penile, Confirmed HPV+, 400 mg BID): 1 | number of patients with SD ([1]; Penile, Total (all HPV status), 400 mg BID): 1 | number of patients with PD [1, 9]: 3 | number of patients with PR/CR [1, 9]: 2 | number of patients with SD [1, 9]: 3 | number of patients with PD ([1]; Total of tumor types, Confirmed HPV-): 1 | number of patients with PD [1, 10]: 6 | number of patients with PR/CR [1, 10]: 4 | number of patients with SD [1, 10]: 4 | number of patients with PD [1, 11]: 2 | number of patients with PR/CR [1, 11]: 2 | number of patients with SD [1, 11]: 1 | number of patients with PR/CR ([1]; Vaginal, Confirmed HPV+, 400 mg BID): 1 | number of patients with PR/CR ([1]; Vaginal, Total (all HPV status), 400 mg BID): 1

Cn1c(C(=O)Nc2cccc(-c3cccc(NC(=O)c4nc5c(n4C)CCN(CCC46CCC(C(=O)O)(CC4)C6)C5)c3Cl)c2Cl)nc2c1CCN(CCC13CCC(C(=O)O)(CC1)C3)C2 [Compound 30, 4,4′-(((((2,2′-dichloro-[1,1′-bipheiryl]-3,3′-diyl)bis(azanediyl))bis(carbonyl))bis(1-methyl-1,4,6,7-tetrahydro-5H-imidazo[4,5-c]pyridine-2,5-diyl))bis(ethane-2,1-diyl))bis(bicyclo[2.2.1]heptane-1-carboxylic acid)]
Best Overall Response ([2]; Patient 1, 300 mg BID, Cervical cancer (SCC), p16 positive): PR | Best Overall Response ([2]; Patient 2, 300 mg BID, Nasopharyngeal (SCC), p16 negative): SD | Best Overall Response ([2]; Patient 3, 300 mg BID, Cervical cancer (SCC), p16 positive): SD | Best Overall Response ([2]; Patient 4, 400 mg BID, Cervical cancer (SCC), p16 positive): PD | Best Overall Response ([2]; Patient 5, 400 mg BID, Nasopharyngeal (SCC), HPV/p16 status Not determined): SD | Best Overall Response ([2]; Patient 6, 400 mg BID, Cervical cancer (SCC), Positive due to HSIL): SD | Best Overall Response ([2]; Patient 7, 400 mg BID, Acinic cell parotid gland carcinoma, HPV/p16 status Not determined): PD | Best Overall Response ([2]; Patient 8, 400 mg BID, Cervical cancer (adenosquamous), p16 positive): PR | Best Overall Response ([2]; Patient 9, 600 mg QD, Cervical cancer (SCC), p16 positive): PD | Best Overall Response ([2]; Patient 10, 600 mg QD, Cervical cancer (SCC and adenocarcinoma), HPV/p16 status Not determined): PD | Best Overall Response ([2]; Patient 11, 600 mg BID, Cervical cancer (SCC), p16 positive): PD | Best Overall Response ([2]; Patient 12, 600 mg BID, Penile cancer (SCC), p16 positive): SD | Best Overall Response ([2]; Patient 13, 200 mg BID, Anal canal (SCC), HPV/p16 status Not determined): PD | IC50 [3]: < 10 nM
